This passage reports ED50 ratio results from ChEMBL document CHEMBL1150473, “Schotten-Baumann acylation of N-debenzoyltaxol; an efficient route to N-acyl taxol analogues and their biological evaluation” (1994).

For one assay, the system named is B16. Kind of assay: Cytotoxic ratio of inhibition of B16 melanoma cell proliferation after 40 hour incubation relative to taxol. Format: functional, Mus musculus.
The target of assay [1] is Tubulin alpha chain (Sus scrofa) (UniProt P02550). Put plainly: Evaluated for ability to initiate the polymerization of tubulin in the microtubule assembly assay expressed as ED50(compound) / ED50(taxol). Format: functional.
Chain of Tubulin alpha chain (Sus scrofa) (P02550 whole entry, looked up): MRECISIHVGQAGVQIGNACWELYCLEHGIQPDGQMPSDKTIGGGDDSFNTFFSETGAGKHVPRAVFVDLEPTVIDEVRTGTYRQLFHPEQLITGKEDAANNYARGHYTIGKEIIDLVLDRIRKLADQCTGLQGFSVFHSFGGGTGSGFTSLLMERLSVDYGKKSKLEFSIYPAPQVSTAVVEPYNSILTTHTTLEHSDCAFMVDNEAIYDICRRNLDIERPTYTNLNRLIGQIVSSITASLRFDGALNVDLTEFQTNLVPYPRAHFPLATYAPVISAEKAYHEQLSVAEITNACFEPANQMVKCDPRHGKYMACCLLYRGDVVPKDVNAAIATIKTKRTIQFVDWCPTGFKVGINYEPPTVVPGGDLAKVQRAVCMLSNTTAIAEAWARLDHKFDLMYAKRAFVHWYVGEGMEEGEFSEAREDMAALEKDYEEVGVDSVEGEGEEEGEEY

With `CC(=O)O[C@H]1C(=O)[C@@]2(C)[C@H]([C@H](OC(=O)c3ccccc3)[C@]3(O)C[C@H](OC(=O)[C@H](O)[C@@H](NC(=O)CC(C)(C)C)c4ccccc4)C(C)=C1C3(C)C)[C@]1(OC(C)=O)CO[C@@H]1C[C@@H]2O`, the ED50 ratio in the assay with B16 amounted to 3.13; in assay [1] it was 0.74.

With `CC(=O)O[C@H]1C(=O)[C@@]2(C)[C@H]([C@H](OC(=O)c3ccccc3)[C@]3(O)C[C@H](OC(=O)[C@H](O)[C@@H](NC(=O)c4c(F)c(F)c(N=[N+]=[N-])c(F)c4F)c4ccccc4)C(C)=C1C3(C)C)[C@]1(OC(C)=O)CO[C@@H]1C[C@@H]2O`, the results for the ED50 ratio (in the assay on B16; in assay [1]) were 14.8 and 4.6, respectively.

For `CC(=O)O[C@@]12CO[C@@H]1C[C@H](O)[C@@]1(C)C(=O)[C@H](O)C3=C(C)[C@@H](OC(=O)[C@H](O)[C@@H](NC(=O)OC(C)(C)C)c4ccccc4)C[C@@](O)([C@@H](OC(=O)c4ccccc4)[C@H]21)C3(C)C.O.O.O` [DOCETAXEL], the ED50 ratio with B16 amounted to 0.23; in assay [1], 0.55.

Consider `CC(=O)O[C@H]1C(=O)[C@@]2(C)[C@H]([C@H](OC(=O)c3ccccc3)[C@]3(O)C[C@H](OC(=O)[C@H](O)[C@@H](NC(=O)CC(C)C)c4ccccc4)C(C)=C1C3(C)C)[C@]1(OC(C)=O)CO[C@@H]1C[C@@H]2O`, for which the ED50 ratio in the assay with B16 came to 2.65; in assay [1], 1.18.

Take `CC(=O)O[C@H]1C(=O)[C@@]2(C)[C@H]([C@H](OC(=O)c3ccccc3)[C@]3(O)C[C@H](OC(=O)[C@H](O)[C@@H](NC(=O)c4ccccc4)c4ccccc4)C(C)=C1C3(C)C)[C@]1(OC(C)=O)CO[C@@H]1C[C@@H]2O` [PACLITAXEL]: the ED50 ratio (in the assay on B16; in assay [1]) was 1 throughout.

For `CC(=O)O[C@H]1C(=O)[C@@]2(C)[C@H]([C@H](OC(=O)c3ccccc3)[C@]3(O)C[C@H](OC(=O)[C@H](O)[C@@H](NC(=O)C(C)(C)C)c4ccccc4)C(C)=C1C3(C)C)[C@]1(OC(C)=O)CO[C@@H]1C[C@@H]2O`, the ED50 ratio with B16 was determined as 22.4; in assay [1] it was 2.61.
